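Where inhibition never reached the appropriate level, the endpoint shown equals the highest concentration tested. Otherwise, values were interpolated linearly from a five-concentration, 48-hour dose response in 96-well plates. Here, GI50 denotes the concentration required for 50% inhibition of growth. TGI marks complete inhibition of growth.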
How the values were obtained:
Assay in all cases: NCI tumour cell line growth inhibition, 48 h
NCI/ADR-RES ovarian = test system: NCI/ADR-RES ovarian
NCI-H522 lung = test system: NCI-H522 lung
UO-31 renal = test system: UO-31 renal
M14 melanoma = test system: M14 melanoma
RXF 393 renal = test system: RXF 393 renal
LOX IMVI melanoma = test system: LOX IMVI melanoma
HCT-15 colon = test system: HCT-15 colon
MDA-MB-435 = test system: MDA-MB-435
A549 NSCLC = test system: A549 NSCLC
786-0 renal = test system: 786-0 renal
A498 renal = test system: A498 renal
SNB-75 CNS = test system: SNB-75 CNS
MALME-3M melanoma = test system: MALME-3M melanoma
CCRF-CEM leukemia = test system: CCRF-CEM leukemia
UACC-257 melanoma = test system: UACC-257 melanoma
HL-60(TB) leukemia = test system: HL-60(TB) leukemia
SF-539 CNS = test system: SF-539 CNS
SK-OV-3 ovarian = test system: SK-OV-3 ovarian
SK-MEL-5 melanoma = test system: SK-MEL-5 melanoma
SN12C renal = test system: SN12C renal
SF-295 CNS = test system: SF-295 CNS
NCI-H23 lung = test system: NCI-H23 lung
UACC-62 melanoma = test system: UACC-62 melanoma
COLO 205 colon = test system: COLO 205 colon
MCF7 breast = test system: MCF7 breast
HOP-92 NSCLC = test system: HOP-92 NSCLC
TK-10 renal = test system: TK-10 renal
MDA-MB-231 breast = test system: MDA-MB-231 breast
BT-549 breast = test system: BT-549 breast
OVCAR-5 ovarian = test system: OVCAR-5 ovarian
T-47D breast = test system: T-47D breast
HCT-116 colon = test system: HCT-116 colon
RPMI-8226 leukemia = test system: RPMI-8226 leukemia
NCI-H460 lung = test system: NCI-H460 lung
SR leukemia = test system: SR leukemia
OVCAR-8 ovarian = test system: OVCAR-8 ovarian
HCC-2998 colon = test system: HCC-2998 colon
HS 578T breast = test system: HS 578T breast
CAKI-1 renal = test system: CAKI-1 renal
MOLT-4 leukemia = test system: MOLT-4 leukemia
SK-MEL-2 melanoma = test system: SK-MEL-2 melanoma
HOP-62 NSCLC = test system: HOP-62 NSCLC
IGROV1 ovarian = test system: IGROV1 ovarian
K-562 leukemia = test system: K-562 leukemia
OVCAR-4 ovarian = test system: OVCAR-4 ovarian
SNB-19 CNS = test system: SNB-19 CNS
HT29 colon = test system: HT29 colon
ACHN renal = test system: ACHN renal
PC-3 prostate = test system: PC-3 prostate
SK-MEL-28 melanoma = test system: SK-MEL-28 melanoma
SW-620 colon = test system: SW-620 colon
NCI-H226 lung = test system: NCI-H226 lung
U251 CNS = test system: U251 CNS

Work on `CCCn1c(=S)sc2c1nc(C)n1c(Nc3ccccc3)nnc21` yielded a GI50 (NCI/ADR-RES ovarian) of 3.53 µM, a TGI (NCI/ADR-RES ovarian) of 41.9 µM and a GI50 (NCI-H522 lung) of 3.57 µM. For the same compound, the TGI (NCI-H522 lung) was 15.5 µM, the GI50 (UO-31 renal) was 5.05 µM and the TGI (UO-31 renal) was > 100 µM. For the same compound, the GI50 (M14 melanoma) was 4.72 µM, the TGI (M14 melanoma) was 44 µM and the GI50 (RXF 393 renal) was 15.1 µM. For the same compound, the TGI (RXF 393 renal) was > 100 µM, the GI50 (LOX IMVI melanoma) was 3.67 µM and the TGI (LOX IMVI melanoma) was > 100 µM. The GI50 (HCT-15 colon) was 5.09 µM, the TGI (HCT-15 colon) was > 100 µM and the GI50 (MDA-MB-435) was 3.22 µM. For the same compound, the TGI (MDA-MB-435) was 24.1 µM, the GI50 (A549 NSCLC) was 6.18 µM and the TGI (A549 NSCLC) was > 100 µM. The GI50 (786-0 renal) was 4.3 µM, the TGI (786-0 renal) was 49.2 µM and the GI50 (A498 renal) was 2.52 µM. The TGI (A498 renal) was 14.1 µM, the GI50 (SNB-75 CNS) was 12.9 µM and the TGI (SNB-75 CNS) was 71 µM. The GI50 (MALME-3M melanoma) was 2.94 µM, the TGI (MALME-3M melanoma) was > 100 µM and the GI50 (CCRF-CEM leukemia) was 4.32 µM. For the same compound, the TGI (CCRF-CEM leukemia) was > 100 µM, the GI50 (UACC-257 melanoma) was 3.36 µM and the TGI (UACC-257 melanoma) was 36.1 µM. For the same compound, the GI50 (HL-60(TB) leukemia) was 3.46 µM, the TGI (HL-60(TB) leukemia) was > 100 µM and the GI50 (SF-539 CNS) was 7.45 µM. It also gave a TGI (SF-539 CNS) of 30.3 µM, a GI50 (SK-OV-3 ovarian) of 16.8 µM and a TGI (SK-OV-3 ovarian) of 89.1 µM. The GI50 (SK-MEL-5 melanoma) was 3.31 µM, the TGI (SK-MEL-5 melanoma) was 11.2 µM and the GI50 (SN12C renal) was 4.63 µM. The TGI (SN12C renal) was > 100 µM, the GI50 (SF-295 CNS) was 2.59 µM and the TGI (SF-295 CNS) was 19.8 µM. The GI50 (NCI-H23 lung) was 2.77 µM, the TGI (NCI-H23 lung) was 11.1 µM and the GI50 (UACC-62 melanoma) was 3.09 µM. For the same compound, the TGI (UACC-62 melanoma) was 18.9 µM, the GI50 (COLO 205 colon) was 17 µM and the TGI (COLO 205 colon) was 47.3 µM. For the same compound, the GI50 (MCF7 breast) was 6.31 µM, the TGI (MCF7 breast) was 47.3 µM and the GI50 (HOP-92 NSCLC) was 2.31 µM. The TGI (HOP-92 NSCLC) was 20.2 µM, the GI50 (TK-10 renal) was 3.2 µM and the TGI (TK-10 renal) was 84 µM. It also gave a GI50 (MDA-MB-231 breast) of 9.71 µM, a TGI (MDA-MB-231 breast) of 33 µM and a GI50 (BT-549 breast) of 2.99 µM. The TGI (BT-549 breast) was 12 µM, the GI50 (OVCAR-5 ovarian) was 21 µM and the TGI (OVCAR-5 ovarian) was > 100 µM. It also gave a GI50 (T-47D breast) of 1.63 µM, a TGI (T-47D breast) of 8.25 µM and a GI50 (HCT-116 colon) of 4.43 µM. The TGI (HCT-116 colon) was 17.7 µM, the GI50 (RPMI-8226 leukemia) was 4.22 µM and the TGI (RPMI-8226 leukemia) was 39.3 µM. The GI50 (NCI-H460 lung) was 3.5 µM, the TGI (NCI-H460 lung) was 13.8 µM and the GI50 (SR leukemia) was 1.83 µM. For the same compound, the TGI (SR leukemia) was 16 µM, the GI50 (OVCAR-8 ovarian) was 4.92 µM and the TGI (OVCAR-8 ovarian) was > 100 µM. It also gave a GI50 (HCC-2998 colon) of 3.27 µM, a TGI (HCC-2998 colon) of 12.2 µM and a GI50 (HS 578T breast) of 3.55 µM. It also gave a TGI (HS 578T breast) of 36 µM, a GI50 (CAKI-1 renal) of 6.05 µM and a TGI (CAKI-1 renal) of 62.4 µM. It also gave a GI50 (MOLT-4 leukemia) of 3.02 µM, a TGI (MOLT-4 leukemia) of 48.3 µM and a GI50 (SK-MEL-2 melanoma) of 4.64 µM. It also gave a TGI (SK-MEL-2 melanoma) of 53.1 µM, a GI50 (HOP-62 NSCLC) of 7.15 µM and a TGI (HOP-62 NSCLC) of 23.9 µM. For the same compound, the GI50 (IGROV1 ovarian) was 25.8 µM, the TGI (IGROV1 ovarian) was > 100 µM and the GI50 (K-562 leukemia) was 6.15 µM. For the same compound, the TGI (K-562 leukemia) was 37.7 µM, the GI50 (OVCAR-4 ovarian) was 3.46 µM and the TGI (OVCAR-4 ovarian) was > 100 µM. The GI50 (SNB-19 CNS) was 3.94 µM, the TGI (SNB-19 CNS) was > 100 µM and the GI50 (HT29 colon) was 13.1 µM. For the same compound, the TGI (HT29 colon) was 38.3 µM, the GI50 (ACHN renal) was 5.05 µM and the TGI (ACHN renal) was > 100 µM. It also gave a GI50 (PC-3 prostate) of 4.04 µM, a TGI (PC-3 prostate) of 34.5 µM and a GI50 (SK-MEL-28 melanoma) of 5.71 µM. It also gave a TGI (SK-MEL-28 melanoma) of 38.6 µM, a GI50 (SW-620 colon) of 8.41 µM and a TGI (SW-620 colon) of 22.3 µM. For the same compound, the GI50 (NCI-H226 lung) was 4.98 µM, the TGI (NCI-H226 lung) was 23.6 µM and the GI50 (U251 CNS) was 4.02 µM. For the same compound, the TGI (U251 CNS) was > 100 µM.
